Data from patent EP4159213A1, “PHARMACEUTICAL COMPOSITIONS FOR USE IN PREVENTION AND/OR TREATMENT AND/OR CURE OF HEPATITIS B VIRUS” (Katholieke Universiteit Leuven, priority 2021, dated 2023).
Where a name gives a salt, the structure may show the parent alone. Read-outs that look alike come from different tables or passages of the source. Residues, ends and D or L forms follow the SMILES beside them.

Target: T1, human NTCP (Homo sapiens, UniProt Q14973)
T1 sequence (Q14973 1-349): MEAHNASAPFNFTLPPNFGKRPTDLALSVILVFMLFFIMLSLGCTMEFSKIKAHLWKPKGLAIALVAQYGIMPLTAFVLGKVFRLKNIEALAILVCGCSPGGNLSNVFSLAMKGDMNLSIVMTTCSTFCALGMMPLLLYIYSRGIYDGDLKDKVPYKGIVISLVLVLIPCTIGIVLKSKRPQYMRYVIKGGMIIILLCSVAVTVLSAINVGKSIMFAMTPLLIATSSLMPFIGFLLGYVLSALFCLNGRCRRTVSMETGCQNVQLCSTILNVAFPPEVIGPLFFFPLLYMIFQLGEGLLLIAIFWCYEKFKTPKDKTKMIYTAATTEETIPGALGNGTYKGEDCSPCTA
Assay: Inhibition of tauro-nor-THCA-24-DBD uptake in NTCP-transfected CHO cells
Type: cell-based
Design: expressed in transfected cells; host or cells: CHO cells, geneticin selection, expression induced with sodium butyrate
Conditions: for concentration-dependent inhibition of tauro-nor-THCA-24-DBD uptake: multiple inhibitor concentrations
Experimental: The cells were placed in an incubator at 37 °C and 5% CO2. The culture medium consisted of DMEM with 1 g·L^-1 glucose and 25 mM HEPES, supplemented with 10% FBS, 0.05 mg·mL^-1 L-proline, 100 IU·mL^-1 penicillin, 100 […], 2 mM glutamine, 0.11 mg·mL^-1 sodium pyruvate. To ensure selection of NTCP-transfected cells, 0.5 mg·mL^-1 geneticin was added to the medium of the transfected cells. Cells were seeded in black 96-well plates with transparent bottom at a density of 6000 cells·well^-1 and 4000 cells·well^-1 for wild-type and transfected cells, respectively. The medium was replaced every other day and 5 mM sodium butyrate was added to induce protein expression at least 36 h before the start of the experiments. Experiments were performed on day 4 or 5 after seeding when confluence was reached.
Furthermore, to analyse the uptake experiments in NTCP-transfected CHO cells, cells were rinsed twice with 200 µL-well^-1 uptake buffer (HBSS containing 10 mM HEPES, pH 7.4) at 37 °C and subsequently preincubated with 100 µL uptake buffer for 15 minutes. For inhibition experiments, compounds were added at double concentration during preincubation. Uptake was initiated by adding 100 µL double-concentrated tauro-nor-THCA-24-DBD solution in uptake buffer. Cells were incubated for 15 minutes. The reaction was quenched by aspirating the incubation mixture and washing four times with ice cold uptake buffer. The cells were lysed with 100 µL 0.5% Triton X-100 in PBS and placed on a plate shaker (300 rpm) at room temperature for 30 minutes. Uptake of tauro-nor-THCA-24-DBD was determined using fluorescence spectroscopy (excitation 440 nm, emission 580 nm) using a Tecan Infinite 200 plate reader (Tecan Benelux, Mechelen, Belgium). Protein content of each well was determined with the BCA Protein assay (Thermo Fisher Scientific, Waltham, MA) performed according to the manufacturer's protocol. Uptake kinetics of tauro-nor-THCA-24-DBD were determined by incubating eight different concentrations in the absence of any compound. […] All conditions were tested in triplicate.
Uptake of tauro-nor-THCA-24-DBD in presence of compounds was expressed to uptake of the control for each batch, i.e. when no compound was present.
For determination of the IC50, the uptake in presence of various concentrations of inhibitor was fitted to the sigmoid Emax model: E = Emax −(Emax−E0) × (([I])^n)/(([I])^n + IC50^n) [formula] with E the uptake of tauro-nor-THCA-24-DBD, E0 the uptake at maximal inhibition by the compound, Emax the uptake at minimal inhibition, IC50 the concentration of the inhibitor at half maximal inhibition, n the Hill coefficient and [I] the concentration of the inhibitor. All curves were fitted with nonlinear least squares regression using R version 3.5.1.
Assuming competitive inhibition, the Cheng-Prusoff equation was used to determine the Ki value: Ki = (IC50)/(1 + ([S])/(Km)) [formula] where Ki is the binding affinity of the inhibitor, IC50 the concentration of the inhibitor at half maximal inhibition, [S] the substrate concentration, and Km the Michaelis-Menten constant of the substrate.

[1] = 3 µM tauro-nor-THCA-24-DBD, Cheng-Prusoff from IC50, screening hits, read-out: Ki
[2] = compound at equimolar concentration with 3 µM tauro-nor-THCA-24-DBD, triplicate
[3] = 3 µM tauro-nor-THCA-24-DBD, 15 minutes, Cheng-Prusoff from IC50, known NTCP inhibitors, read-out: Ki ± SE

| SMILES | Ki [1] | Uptake of tauro-nor-THCA-24-DBD (% of control) [2] | other results |
| --- | --- | --- | --- |
| O=C(O)c1cc([N+](=O)[O-])ccc1NCCCc1ccccc1 [5-nitro-2-phenylpropylaminobenzoic acid] | 820 nM | 49.55 % of control |  |
| C=CC(C)(O)CCC=C(C)C (stereo not drawn) [(+)- Linalool] |  | 46.35 % of control |  |
| COc1cc2c(cc1OC)[C@@H]1C(=O)c3ccc4c(c3O[C@@H]1CO2)C=CC(C)(C)O4 [(-)-Deguelin] | 1670 nM | 27.97 % of control |  |
| COc1ccc(-c2oc3c(CC=C(C)C)c(O)cc(O)c3c(=O)c2O[C@@H]2O[C@@H](C)[C@H](O)[C@@H](O)[C@H]2O)cc1 [Baohuoside I] |  |  | concentration-dependent inhibition of tauro-nor-THCA-24-DBD uptake (3 µM tauro-nor-THCA-24-DBD): showed concentration-dependent inhibition; Ki (3 µM tauro-nor-THCA-24-DBD, values given with ± spread, read-out: Ki): 12600 ± 4100 nM |
| COc1ccccc1Oc1c(NS(=O)(=O)c2ccc(C(C)(C)C)cc2)nc(-c2ncccn2)nc1OCCO [Bosentan] |  |  | Ki [3]: 6300 ± 1400 nM; concentration-dependent inhibition of tauro-nor-THCA-24-DBD uptake (3 µM tauro-nor-THCA-24-DBD): concentration-dependent manner |
| O=C1OC(c2ccc(O)c(S(=O)(=O)O)c2)(c2ccc(O)c(S(=O)(=O)O)c2)c2c(Br)c(Br)c(Br)c(Br)c21 [Bromosulfophthalein] |  |  | Ki [3]: 10700 ± 3100 nM; concentration-dependent inhibition of tauro-nor-THCA-24-DBD uptake (3 µM tauro-nor-THCA-24-DBD): concentration-dependent manner |
| CCOc1nc2cccc(C(=O)OC(C)OC(=O)OC3CCCCC3)c2n1Cc1ccc(-c2ccccc2-c2nnn[nH]2)cc1 (centres unmarked) [Candesartan cilextil] | 340 nM | 19.76 % of control |  |
| Cn1nnnc1SCC1=C(C(=O)O)N2C(=O)[C@@H](NC(=O)[C@H](O)c3ccccc3)[C@H]2SC1 [Cefamandole sodium] | 2070 nM | 23.97 % of control |  |
| COC(=O)CC[C@@H](C)[C@H]1CC[C@H]2[C@@H]3[C@H](O)C[C@@H]4C[C@H](O)CC[C@]4(C)[C@H]3C[C@H](O)[C@]12C [Cholic acid, methyl ester] |  |  | Ki: 2320 nM; Uptake of tauro-nor-THCA-24-DBD (% of control): 37.90 % of control |
| COc1cc(OC)c2ccc(=O)oc2c1 [Citropten] |  | 46.97 % of control |  |
| CC(C)(O)CC[C@@H](O)[C@](C)(O)[C@H]1CC[C@@]2(O)C3=CC(=O)[C@@H]4C[C@@H](O)[C@@H](O)C[C@]4(C)[C@H]3CC[C@]12C [Crustecdysone] |  | 46.18 % of control |  |
| CC/C(=C(/CC)c1ccc(O)cc1)c1ccc(O)cc1 [Diethylstilbestrol] | 1570 nM | 48.51 % of control |  |
| COc1cc2c(cc1OC)[C@@H]1C(=O)c3ccc4c(c3O[C@@H]1CO2)C[C@H](C(C)C)O4 [Dihydrorotenone] | 1110 nM | 37.31 % of control |  |
| CCC(=O)O[C@H]1[C@H](O[C@@H]2[C@@H](C)[C@H](O[C@H]3C[C@@](C)(OC)[C@@H](O)[C@H](C)O3)[C@@H](C)C(=O)O[C@H](CC)[C@@](C)(O)[C@H](O)[C@@H](C)C(=O)[C@H](C)C[C@@]2(C)O)O[C@H](C)C[C@@H]1N(C)C [Erythromycin estolate] | 520 nM | 8.49 % of control |  |
| O=C(O)c1ccccc1Nc1cccc(C(F)(F)F)c1 [Flufenamic acid] | 7510 nM | 44.12 % of control |  |
| CN[C@@H]1[C@@H](O)[C@@H](O[C@@H]2[C@@H](O)[C@H](O[C@H]3O[C@H]([C@@H](C)O)[C@@H](O)[C@H](O)[C@H]3N)[C@@H](N)C[C@H]2N)OC[C@]1(C)O [Geneticin] |  | 43.81 % of control |  |

| SMILES | Ki [1] | Uptake of tauro-nor-THCA-24-DBD (% of control) [2] | other results |
| --- | --- | --- | --- |
| CC(=O)O.Cc1cc2c(C(C)C)c(O)c(O)c(C=O)c2c(O)c1-c1c(C)cc2c(C(C)C)c(O)c(O)c(C=O)c2c1O [Gossypol-acetic acid complex] | 3100 nM | 36.14 % of control |  |
| Cc1cc2c(C(C)C)c(O)c(O)c(C=O)c2c(O)c1-c1c(C)cc2c(C(C)C)c(O)c(O)c(C=O)c2c1O [Gossypol] | 400 nM | 12.48 % of control |  |
| Cc1cc(O)c(C=O)c(O)c1C(=O)O [Haematommic acid] |  | 49.33 % of control |  |
| Oc1c(Cl)cc(Cl)c(Cl)c1Cc1c(O)c(Cl)cc(Cl)c1Cl [Hexachlorophene] |  | 23.92 % of control | Ki: 260 nM |
| COc1cc(-c2coc3cc(OCc4ccccc4)c(OC)c(O)c3c2=O)cc(O)c1OC [Irigenin, 7-benzyl ether] | 13000 nM | 46.71 % of control |  |
| CC(=O)O[C@H]1C[C@H](O[C@H]2[C@@H](O)C[C@H](O[C@H]3[C@@H](O)C[C@H](O[C@H]4CC[C@@]5(C)[C@H](CC[C@@H]6[C@@H]5C[C@@H](O)[C@]5(C)[C@@H](C7=CC(=O)OC7)CC[C@]65O)C4)O[C@@H]3C)O[C@@H]2C)O[C@H](C)[C@H]1O[C@@H]1O[C@H](CO)[C@@H](O)[C@H](O)[C@H]1O [Lanatoside c] |  |  | Ki: 125000 nM; Uptake of tauro-nor-THCA-24-DBD (% of control): 45.13 % of control |
| CCCCCc1c2c(cc(O)c1C(=O)O)OC(=O)c1c(cc(OC)cc1C(=O)CCCC)O2 [Lobaric acid] | 360 nM | 9.70 % of control |  |
| COC(=O)CC[C@@H](C)[C@H]1CC[C@H]2[C@@H]3CC[C@@H]4C[C@H](O)CC[C@]4(C)[C@H]3C[C@H](O)[C@]12C [Methyl deoxycholate] | 4840 nM | 36.71 % of control |  |
| COC(=O)C1=C(C)NC(C)=C(C(=O)OCCN(C)Cc2ccccc2)C1c1cccc([N+](=O)[O-])c1 (centres unmarked) [Nicardipine hydrochloride] | 3530 nM | 42.69 % of control |  |
| O=C(Nc1ccc([N+](=O)[O-])cc1Cl)c1cc(Cl)ccc1O [Niclosamide] | 80 nM | 35.45 % of control |  |
| Oc1c(Cl)c(Cl)c(Cl)c(Cl)c1Cl [Pentachlorophenol] | 2270 nM | 46.29 % of control |  |
| N[C@@H](Cc1ccccc1)C(=O)N[C@@H](Cc1ccc(O)cc1)C(=O)O [Phenylalanyltyrosine] (H-Phe-Tyr-OH) |  | 47.22 % of control |  |
| COC(=O)[C@H]1[C@H]2C[C@H]3c4[nH]c5ccccc5c4CCN3C[C@H]2CC[C@@H]1O [Rauwolscine hydrochloride] | 39300 nM |  |  |
| COc1ccc(-c2c(OC)c3c(OC)c4c(cc3oc2=O)OC(C)(C)C=C4)cc1 [Robustic acid methyl ether] | 10600 nM | 21.11 % of control |  |
| COc1c(CC=C(C)C)c2c(c3oc(=O)c(-c4ccc(O)cc4)c(O)c13)C=CC(C)(C)O2 [Scandenin] |  | 38.92 % of control |  |
| O=C(OC[C@H]1O[C@@H](OC(=O)c2cc(O)c(O)c(OC(=O)c3cc(O)c(O)c(O)c3)c2)[C@H](OC(=O)c2cc(O)c(O)c(OC(=O)c3cc(O)c(O)c(O)c3)c2)[C@@H](OC(=O)c2cc(O)c(O)c(OC(=O)c3cc(O)c(O)c(O)c3)c2)[C@@H]1OC(=O)c1cc(O)c(O)c(OC(=O)c2cc(O)c(O)c(O)c2)c1)c1cc(O)c(O)c(OC(=O)c2cc(O)c(O)c(O)c2)c1 [Tannic acid] | 350 nM | 8.31 % of control |  |
